This note sets out measurements from patent US10266609B2, “Immunomodulating beta-1,6-D-glucans” (Innate Biotherapeutics, LLC, priority 2014, dated 2019).

In the assay the test system is Anti-β-1,6-Glucan IgG antibodies (affinity purified from IVIG, Baxter). In words: ELISA: binding of oligosaccharides to anti-β-1,6-glucan antibodies. Note: key: a plus (+) sign indicates that the glucan was active in the assay; a minus (−) sign indicates that the glucan was not active; the '+/−' symbol indicates inconclusive results. The conditions noted are these: plate coated with oligosaccharide in PBS; 40 ug/mL anti-Beta 1,6 Glucan IgG; anti-human IgG-HRP, TMB, absorbance at 620 nm. On the procedure:
Binding of oligosaccharides to anti-β-1,6-glucan antibodies is performed as described in the following protocol.
• 1. […] Anti-β-1,6-Glucan IgG antibodies (affinity purified from IVIG, Baxter) • 6. […] PBS-Tween buffer (PH 7.2, 0.05% Tween 20, Kpl cat #51-12-01) II. Method: Detection of Anti-Beta Glucan IgG by ELISA • 1. Coat plate with oligosaccharides in PBS overnight at 4° C. • 2. Wash 3 times with 250 uL of PBS-Tween • 3. Empty plate • 4. Block plate with 200 uL of Casein for 1 hour at room temperature • 5. Empty plate • 6. Add 40 ug/mL anti-Beta 1,6 Glucan IgG (4 ug/well) in Casein • 7. Incubate for 45 min at room temperature • 8. Wash 3 times with 250 uL of PBS-Tween • 9. Empty plate • 10. Add detection antibody: anti-human IgG-HRP at 1:5000—in casein. Incubate for 45 min at room temperature in the dark • 11. Wash 5 times with 250 uL of PBS-Tween • 12. Empty plate • 13. Add 100 uL of one step ultra TMB • 14. Measure the absorbance at 620 nm every 1 min for 60 min Tables 1-3 provide ELISA assay data for certain glucan compounds.

As to “3,5-bis(1-[2-[O-β-D-glucopyranosyl-(1→6)-O-β-D-glucopyranosyl-(1→6)-O-β-D-glucopyranosyl-(1→6)-α-D-glucopyranosyl]oxy]ethyl-1H-1,2,3-triazol-4-yl)methoxybenzoic acid [(β-D-glucopyanosy1-1,6)nα-O(CH2)2-, n=4]”, the “ELISA assay data: glucan active in detection of anti-beta glucan IgG” value (from here on “ELISA assay data: glucan active”) is listed as “+”.
Consider `[N-]=[N+]=NCCOC1OC(COC2OC(COC3OC(COC4OC(COC5OC(CO)C(O)C(O)C5O)C(O)C(O)C4O)C(O)C(O)C3O)C(O)C(O)C2O)C(O)C(O)C1O` (stereo not drawn) [α-O(CH2)2N3, n=5], for which the “ELISA assay data: glucan active” value was “+”.
In the case of `OC[C@H]1O[C@@H](OC[C@H]2O[C@@H](OC[C@H]3O[C@@H](OC[C@H]4O[C@@H](OC[C@H]5O[C@@H](OC[C@H]6OC(OCCCl)[C@H](O)[C@@H](O)[C@@H]6O)[C@H](O)[C@@H](O)[C@@H]5O)[C@H](O)[C@@H](O)[C@@H]4O)[C@H](O)[C@@H](O)[C@@H]3O)[C@H](O)[C@@H](O)[C@@H]2O)[C@H](O)[C@@H](O)[C@@H]1O` (stereo partly drawn) [α-O(CH2)2Cl, n=6, 2-chloroethyl [O-β-D-glucopyranosyl-1,6]5-D-glucopyranoside], the “ELISA assay data: glucan active” value is on record as “+”.
`[N-]=[N+]=NCCOC1OC(COC2OC(COC3OC(COC4OC(COC5OC(COC6OC(COC7OC(COC8OC(COC9OC(CO)C(O)C(O)C9O)C(O)C(O)C8O)C(O)C(O)C7O)C(O)C(O)C6O)C(O)C(O)C5O)C(O)C(O)C4O)C(O)C(O)C3O)C(O)C(O)C2O)C(O)C(O)C1O` (stereo not drawn) [α-O(CH2)2N3, n=9]: the “ELISA assay data: glucan active” value is “+”.
On to `[N-]=[N+]=NCCOC1OC(COC2OC(COC3OC(COC4OC(COC5OC(COC6OC(COC7OC(CO)C(O)C(O)C7O)C(O)C(O)C6O)C(O)C(O)C5O)C(O)C(O)C4O)C(O)C(O)C3O)C(O)C(O)C2O)C(O)C(O)C1O` (stereo not drawn) [α-O(CH2)2N3, n=7], for which the “ELISA assay data: glucan active” value is recorded as “+”.
As for “[O-β-D-glucopyranosyl-1,6-]5-D-glucose [OH, n=6]”, the entry is “+”.
Consider `O=C(O)C1CCN(CC(O)[C@@H](O)[C@H](O)[C@H](O)CO[C@@H]2O[C@H](CO[C@@H]3O[C@H](CO[C@@H]4O[C@H](CO[C@@H]5O[C@H](CO)[C@@H](O)[C@H](O)[C@H]5O)[C@@H](O)[C@H](O)[C@H]4O)[C@@H](O)[C@H](O)[C@H]3O)[C@@H](O)[C@H](O)[C@H]2O)CC1` (mixture of isomers) [4-piperidineCO2H, n=4], for which the “ELISA assay data: glucan active” value is reported as “+”.
`CN(Cc1ccc(C(=O)O)cc1)CC(O)[C@@H](O)[C@H](O)[C@H](O)CO[C@@H]1O[C@H](CO[C@@H]2O[C@H](CO[C@@H]3O[C@H](CO[C@@H]4O[C@H](CO)[C@@H](O)[C@H](O)[C@H]4O)[C@@H](O)[C@H](O)[C@H]3O)[C@@H](O)[C@H](O)[C@H]2O)[C@@H](O)[C@H](O)[C@H]1O` (mixture of isomers) [N(Me),N(CH2)4-BzOH, n=4]: the “ELISA assay data: glucan active” value was “+”.
`OC[C@H]1O[C@@H](OC[C@H]2O[C@@H](OC[C@H]3O[C@@H](OC[C@H]4OC(OCCCl)[C@H](O)[C@@H](O)[C@@H]4O)[C@H](O)[C@@H](O)[C@@H]3O)[C@H](O)[C@@H](O)[C@@H]2O)[C@H](O)[C@@H](O)[C@@H]1O` (stereo partly drawn) [α-O(CH2)2Cl, n=4, 2-chloroethyl [O-β-D-glucopyranosyl-1,6]3-D-glucopyranoside]: the “ELISA assay data: glucan active” value was “+”.
Take `[N-]=[N+]=NCCO[C@@H]1O[C@H](CO[C@@H]2O[C@H](CO[C@@H]3O[C@H](CO[C@@H]4O[C@H](CO[C@@H]5O[C@H](CO)[C@@H](O)[C@H](O)[C@H]5O)[C@@H](O)[C@H](O)[C@H]4O)[C@@H](O)[C@H](O)[C@H]3O)[C@@H](O)[C@H](O)[C@H]2O)[C@@H](O)[C@H](O)[C@H]1O` [β-O(CH2)2N3, n=5, 2-azidoethyl [O-β-D-glucopyranosyl-1,6]4-β-D-glucopyranoside]: the “ELISA assay data: glucan active” value is “+”.
As for `COC1O[C@H](CO[C@@H]2O[C@H](CO[C@@H]3O[C@H](CO[C@@H]4O[C@H](CO[C@@H]5O[C@H](CO[C@@H]6O[C@H](CO[C@@H]7O[C@H](CO[C@@H]8O[C@H](CO[C@@H]9O[C@H](CO)[C@@H](O)[C@H](O)[C@H]9O)[C@@H](O)[C@H](O)[C@H]8O)[C@@H](O)[C@H](O)[C@H]7O)[C@@H](O)[C@H](O)[C@H]6O)[C@@H](O)[C@H](O)[C@H]5O)[C@@H](O)[C@H](O)[C@H]4O)[C@@H](O)[C@H](O)[C@H]3O)[C@@H](O)[C@H](O)[C@H]2O)[C@@H](O)[C@H](O)[C@H]1O` (stereo partly drawn) [OCH3, n=9, methyl [O-β-D-glucopyranosyl-1,6]8-D-glucopyranoside], the entry is “+”; as for `O=CCCCCO[C@@H]1O[C@H](CO[C@@H]2O[C@H](CO[C@@H]3O[C@H](CO[C@@H]4O[C@H](CO)[C@@H](O)[C@H](O)[C@H]4O)[C@@H](O)[C@H](O)[C@H]3O)[C@@H](O)[C@H](O)[C@H]2O)[C@@H](O)[C@H](O)[C@H]1O` [β-O(CH2)4C═O, n=4, 1-O-[4-oxybutoxy]-6-O—[O-β-D-glucopyranosyl-(1,6)]3-β-D-glucopyranoside], “+”; as for “1-O-[2-(2-oxymethoxy)ethoxy]-6-O—[O-β-D-glucopyranosyl-(1,6)]3-β-D-glucopyranoside [β-O(CH2)2O(CH2)2C═O, n=4]”, “+”.
For the compound `OC[C@H]1O[C@@H](OC[C@H]2O[C@@H](OC[C@H]3O[C@@H](OC[C@H]4O[C@@H](OC[C@H]5O[C@@H](OC[C@H]6O[C@@H](OC[C@H]7O[C@@H](OC[C@H]8O[C@@H](OC[C@H]9O[C@@H](OC[C@H]%10O[C@@H](OC[C@H]%11O[C@@H](OC[C@H]%12OC(O)[C@H](O)[C@@H](O)[C@@H]%12O)[C@H](O)[C@@H](O)[C@@H]%11O)[C@H](O)[C@@H](O)[C@@H]%10O)[C@H](O)[C@@H](O)[C@@H]9O)[C@H](O)[C@@H](O)[C@@H]8O)[C@H](O)[C@@H](O)[C@@H]7O)[C@H](O)[C@@H](O)[C@@H]6O)[C@H](O)[C@@H](O)[C@@H]5O)[C@H](O)[C@@H](O)[C@@H]4O)[C@H](O)[C@@H](O)[C@@H]3O)[C@H](O)[C@@H](O)[C@@H]2O)[C@H](O)[C@@H](O)[C@@H]1O` (stereo partly drawn) [OH, n=12, [O-β-D-glucopyranosyl-1,6-]11-D-glucose], the “ELISA assay data: glucan active” value was “+”.
As to `OC[C@H]1O[C@@H](OC[C@H]2O[C@@H](OC[C@H]3O[C@@H](OC[C@H]4O[C@@H](OC[C@H]5O[C@@H](OC[C@H]6O[C@@H](OC[C@H]7O[C@@H](OC[C@H]8O[C@@H](OC[C@H]9OC(OCCCl)[C@H](O)[C@@H](O)[C@@H]9O)[C@H](O)[C@@H](O)[C@@H]8O)[C@H](O)[C@@H](O)[C@@H]7O)[C@H](O)[C@@H](O)[C@@H]6O)[C@H](O)[C@@H](O)[C@@H]5O)[C@H](O)[C@@H](O)[C@@H]4O)[C@H](O)[C@@H](O)[C@@H]3O)[C@H](O)[C@@H](O)[C@@H]2O)[C@H](O)[C@@H](O)[C@@H]1O` (stereo partly drawn) [α-O(CH2)2Cl, n=9, 2-chloroethyl [O-β-D-glucopyranosyl-1,6]8-D-glucopyranoside], the “ELISA assay data: glucan active” value is on record as “+”.
For the compound `COC1O[C@H](CO[C@@H]2O[C@H](CO[C@@H]3O[C@H](CO)[C@@H](O)[C@H](O)[C@H]3O)[C@@H](O)[C@H](O)[C@H]2O)[C@@H](O)[C@H](O)[C@H]1O` (stereo partly drawn) [OCH3, n=3, methyl [O-β-D-glucopyranosyl-1,6]2-D-glucopyranoside], the “ELISA assay data: glucan active” value was “+”.
`OCC1OC(OCC2OC(OCC3OC(OCC4OC(OCC5OC(OCC6OC(OCC7OC(OCC8OC(OCC9OC(O)C(O)C(O)C9O)C(O)C(O)C8O)C(O)C(O)C7O)C(O)C(O)C6O)C(O)C(O)C5O)C(O)C(O)C4O)C(O)C(O)C3O)C(O)C(O)C2O)C(O)C(O)C1O` (centres unmarked) [OH, n=9]: the “ELISA assay data: glucan active” value is recorded as “+”.
`COC1O[C@H](CO[C@@H]2O[C@H](CO[C@@H]3O[C@H](CO[C@@H]4O[C@H](CO[C@@H]5O[C@H](CO[C@@H]6O[C@H](CO[C@@H]7O[C@H](CO[C@@H]8O[C@H](CO)[C@@H](O)[C@H](O)[C@H]8O)[C@@H](O)[C@H](O)[C@H]7O)[C@@H](O)[C@H](O)[C@H]6O)[C@@H](O)[C@H](O)[C@H]5O)[C@@H](O)[C@H](O)[C@H]4O)[C@@H](O)[C@H](O)[C@H]3O)[C@@H](O)[C@H](O)[C@H]2O)[C@@H](O)[C@H](O)[C@H]1O` (stereo partly drawn) [OCH3, n=8, methyl [O-β-D-glucopyranosyl-1,6]7-D-glucopyranoside]: the “ELISA assay data: glucan active” value is “+”.
Take `OC[C@H]1O[C@@H](OC[C@H]2OC(O)[C@H](O)[C@@H](O)[C@@H]2O)[C@H](O)[C@@H](O)[C@@H]1O` (some centres unmarked) [OH, n=2]: the “ELISA assay data: glucan active” value is “+”.
`[N-]=[N+]=NCCOC1OC(COC2OC(COC3OC(CO)C(O)C(O)C3O)C(O)C(O)C2O)C(O)C(O)C1O` (stereo not drawn) [α-O(CH2)2N3, n=3]: the “ELISA assay data: glucan active” value is reported as “+”.
